Laboratory results from patent US12018001B2, “Pyrimidine cyclohexenyl glucocorticoid receptor modulators” (priority 2018, dated 2024).
Like-named read-outs stand apart in the source and are kept apart here.

Tests used:
glucocorticoid receptor = target: T1, glucocorticoid receptor (Homo sapiens, UniProt P04150); assay: Hep G2 TAT assay: induction of TAT by dexamethasone in HepG2 cells; type: cell-based
T1 construct: host or cells: HepG2
T1 sequence (P04150 1-777): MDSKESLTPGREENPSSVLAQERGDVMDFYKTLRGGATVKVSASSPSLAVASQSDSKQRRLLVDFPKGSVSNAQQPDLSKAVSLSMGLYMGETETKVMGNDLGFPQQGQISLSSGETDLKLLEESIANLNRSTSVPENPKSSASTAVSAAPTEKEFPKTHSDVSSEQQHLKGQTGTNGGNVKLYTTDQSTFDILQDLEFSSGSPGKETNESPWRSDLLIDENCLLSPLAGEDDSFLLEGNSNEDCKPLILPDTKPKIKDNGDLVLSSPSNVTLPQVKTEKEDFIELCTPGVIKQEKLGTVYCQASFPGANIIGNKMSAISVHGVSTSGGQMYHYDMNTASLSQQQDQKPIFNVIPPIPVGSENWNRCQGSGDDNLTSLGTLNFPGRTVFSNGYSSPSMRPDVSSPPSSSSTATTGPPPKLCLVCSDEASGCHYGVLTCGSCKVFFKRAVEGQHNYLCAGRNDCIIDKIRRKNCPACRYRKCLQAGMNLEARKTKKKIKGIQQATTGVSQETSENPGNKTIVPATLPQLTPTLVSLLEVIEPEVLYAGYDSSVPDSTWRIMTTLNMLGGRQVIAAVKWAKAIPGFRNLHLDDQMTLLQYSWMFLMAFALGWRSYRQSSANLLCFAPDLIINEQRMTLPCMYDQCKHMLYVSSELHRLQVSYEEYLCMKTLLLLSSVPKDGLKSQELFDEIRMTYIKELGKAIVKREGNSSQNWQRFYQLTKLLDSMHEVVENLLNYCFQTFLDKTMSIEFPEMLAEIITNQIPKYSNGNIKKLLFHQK
Protocol: Glucocorticoid mediated activation of TAT occurs by transactivation of glucocorticoid response elements in the TAT promoter by glucocorticoid receptor-agonist complex.
TAT activity was measured as outlined in the literature by A. Ali et al., J. Med. Chem., 2004, 47, 2441-2452.
HepG2 cells were cultured using MEME media supplemented with 10% (v/v) foetal bovine serum; 2 mM L-glutamine and 1% (v/v) NEAA at 37° C., 5%/95% (v/v) CO2/air. The HepG2 cells were counted and adjusted to yield a density of 0.125×10^6 cells/ml in RPMI 1640 without phenol red, 10% (v/v) charcoal stripped FBS, 2 mM L-glutamine and seeded at 25,000 cells/well in 200 μl into 96 well, sterile, tissue culture micro titre plates, and incubated at 37° C., 5% CO2 for 24 hours
Growth media was removed and replaced with assay media {RPMI 1640 without phenol red, 2 mM L-glutamine+10 μM forskolin}. […] Compounds were serially half log diluted in 100% (v/v) dimethylsulphoxide from a 10 mM stock.
HepG2 cells were then lysed with 30 μl of cell lysis buffer containing a protease inhibitor cocktail for 15 minutes at 4° C. 155 μl of substrate mixture was then added containing 5.4 mM Tyrosine sodium salt, 10.8 mM alpha ketoglutarate and 0.06 mM pyridoxal 5′ phosphate in 0.1 M potassium phosphate buffer (pH 7.4). After 2 hours incubation at 37° C. the reaction was terminated by the addition of 15 μl of 10 M aqueous potassium hydroxide solution, and the plates incubated for a further 30 minutes at 37° C. The TAT activity product was measured by absorbance at λ 340 nm.
[compound] and fitting the data to a 4 parameter logistic equation.

[1] = Rat pharmacokinetics (PK) studies, oral gavage cassette; type: in vivo, male Sprague Dawley rats; details: male, Sprague Dawley (or equivalent), rat plasma; for AUC(0-t): read-out: AUC0-24
Protocol: Rat PK studies were conducted in male Sprague Dawley rats (or equivalent) with 3 rats per group. Compounds were evaluated in cassettes of 4 compounds per cassette, with each cassette containing 3 test compounds and one comparator compound with known PK parameters. Rats were cannulated in the jugular vein. The compounds were administered by oral gavage using a suitable vehicle, such as 10% DMSO and 90% methyl cellulose. Compounds of Example 1, Example 10, Example 14, and Example 20 were evaluated with a nominal dose of 1.25 mg/kg and the compound of Example 32 was evaluated with a nominal dose of 3 mg/kg. Blood samples were collected at various timepoints out to 24 hours post-dose and processed to provide plasma. Compound concentrations in the plasma samples were determined by LC/MS analysis. Cmax and AUC were calculated using WinNonlin.

GR = target: T2, GR (Homo sapiens, UniProt P04150); assay: GR binding
T2 sequence (P04150 1-777): T1 sequence (P04150 1-777)

Question: Which Ki (glucocorticoid receptor) does the source give for `N#Cc1ccc(C2=CCC(c3[nH]c(=O)[nH]c(=O)c3Cc3ccccc3)CC2)c(Cl)c1` (centres unmarked) [Example 1, 4′-(5-benzyl-2,6-dioxo-1,2,3,6-tetrahydropyrimidin-4-yl)-2-chloro-2′,3′,4′,5′-tetrahydro-[1,1′-biphenyl]-4-carbonitrile] here?
Answer: 28 nM

Question: What about the Cmax ([1]; nominal dose 1.25 mg/kg) of the same molecule?
Answer: 114 ng/mL

Question: What about the AUC(0-t) ([1]; nominal dose 1.25 mg/kg) of the same molecule?
Answer: 991 ng·h/mL

Question: With `O=c1[nH]c(C2CC=C(c3ccc(Cl)cc3C(F)(F)F)CC2)c(Cc2ccccc2)c(=O)[nH]1` (centres unmarked) [Example 10] as the molecule, how does the Ki (glucocorticoid receptor) read?
Answer: 38 nM

Question: And the Cmax ([1]; nominal dose 1.25 mg/kg)?
Answer: 196 ng/mL

Question: What about the AUC(0-t) ([1]; nominal dose 1.25 mg/kg) of the same molecule?
Answer: 3040 ng·h/mL

Question: With `O=c1[nH]c(C2CC=C(c3cccnc3C(F)(F)F)CC2)c(Cc2ccccc2)c(=O)[nH]1` (centres unmarked) [Example 14] as the molecule, how does the Ki (glucocorticoid receptor) read?
Answer: 41 nM

Question: What about the Cmax ([1]; nominal dose 1.25 mg/kg) of the same molecule?
Answer: 63 ng/mL

Question: What about the AUC(0-t) ([1]; nominal dose 1.25 mg/kg) of the same molecule?
Answer: 188 ng·h/mL

Question: Which Ki (glucocorticoid receptor) does the source give for `COc1cc(C#N)ccc1C1=CCC(c2[nH]c(=O)[nH]c(=O)c2Cc2ccccc2)CC1` (centres unmarked) [Example 20] here?
Answer: 33 nM

Question: What about the Cmax ([1]; nominal dose 1.25 mg/kg) of the same molecule?
Answer: 83.6 ng/mL

Question: What about the AUC(0-t) ([1]; nominal dose 1.25 mg/kg) of the same molecule?
Answer: 375 ng·h/mL

Question: For `N#Cc1ccc(C2=CCC(c3[nH]c(=O)[nH]c(=O)c3Cc3ccccc3)CC2)c(C(F)(F)F)c1` (centres unmarked) [Example 32], which Ki (glucocorticoid receptor) is on record?
Answer: 66 nM

Question: And the Cmax ([1]; nominal dose 3 mg/kg)?
Answer: 453 ng/mL

Question: What about the AUC(0-t) ([1]; nominal dose 3 mg/kg) of the same molecule?
Answer: 988 ng·h/mL

Question: With `CNS(=O)(=O)c1cc(C(F)(F)F)ccc1C1=CCC(c2[nH]c(=O)[nH]c(=O)c2Cc2ccccc2)CC1` (centres unmarked) [Example 96] as the molecule, how does the IC50 (GR) read?
Answer: 5090 nM

Question: For `CN(C)S(=O)(=O)c1cc(C(F)(F)F)ccc1C1=CCC(c2[nH]c(=O)[nH]c(=O)c2Cc2ccccc2)CC1` (centres unmarked) [Example 97], which IC50 (GR) is on record?
Answer: 2560 nM

Question: With `CN(C)S(=O)(=O)c1cc(F)c(C2=CCC(c3[nH]c(=O)[nH]c(=O)c3Cc3ccccc3)CC2)c(F)c1` (centres unmarked) [Example 104] as the molecule, how does the IC50 (GR) read?
Answer: 3160 nM

Question: For `CCS(=O)(=O)c1cc(F)c(C2=CCC(c3[nH]c(=O)[nH]c(=O)c3Cc3ccccc3)CC2)c(F)c1` (centres unmarked) [Example 105], which IC50 (GR) is on record?
Answer: 71.6 nM

Question: With `CS(=O)(=O)c1ccc(C2=CCC(c3[nH]c(=O)[nH]c(=O)c3Cc3ccccc3)CC2)c(Cl)c1` (centres unmarked) [Example 106] as the molecule, how does the IC50 (GR) read?
Answer: 2.1 nM

Question: Which IC50 (GR) does the source give for `CCS(=O)(=O)c1ccc(C2=CCC(c3[nH]c(=O)[nH]c(=O)c3Cc3ccccc3)CC2)c(Cl)c1` (centres unmarked) [Example 107] here?
Answer: 2.8 nM

Question: With `O=c1[nH]c(C2CC=C(c3ccc(OC(F)F)cc3Cl)CC2)c(Cc2ccccc2)c(=O)[nH]1` (centres unmarked) [Example 108] as the molecule, how does the IC50 (GR) read?
Answer: 5.4 nM

Question: Which IC50 (GR) does the source give for `CN(C)c1ncccc1C1=CCC(c2[nH]c(=O)[nH]c(=O)c2Cc2ccccc2)CC1` (centres unmarked) [Example 118] here?
Answer: 0.76 nM
